Reference: US7714146B2, “Azulene-oxindole compounds as multiple-kinase inhibitors and useful as anticancer agents” (Industrial Technology Research Institute, priority 2006, dated 2010)

How the values were obtained:
Assay type in all cases: biochemical
[1] = target: T1, human c-KIT (Thr544-Val976) (Homo sapiens, UniProt P10721); experiment: c-KIT kinase assay (HTScan kit, DELFIA); settings: for inhibition at 0.1 µM: compound at 0.1 μM, read-out: c-KIT 0.1 μM, % of inhibition relative to control; for inhibition at 1 µM: compound at 1 μM, read-out: c-KIT 1 μM, % of inhibition relative to control
T1 construct: human c-KIT (Thr544-Val976); GST (N); purchased Cell Signaling Technology; host or cells: baculovirus expression system
In short: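 GST-tagged human c-KIT (Thr544-Val976) from baculovirus, with 1.5 μM biotinylated KDR Tyr-996 peptide and 20 μM ATP in HEPES pH 7.5 buffer containing Mg2+/Mn2+ and 1% DMSO. Enzyme and compound pre-incubated 5 min, reaction run 30 min at room temperature; phosphorylation detected by DELFIA.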

[2] = target: T2, human PDGFRβ (Gln557-Leu1106) (Homo sapiens, UniProt P09619); experiment: PDGFR-beta kinase assay (HTScan kit, DELFIA); settings: compound at 10 μM
T2 construct: human PDGFRβ (Gln557-Leu1106); GST (N); purchased Cell Signaling Technology; host or cells: baculovirus expression system
Protocol: (§1) Compounds 1-100 were treated for their efficacy in inhibiting activities of FLT-3, c-KIT, KDR/Flk-1, PDGFR-beta, EGFR, and PKC kinases by biochemical DELFIA (Dissociation Enhanced Lanthanide FIA) assays according to the procedure described below. The assays were conducted by, Division of Cell Engineering, Biomedical Engineering Research Laboratories, Industrial Technology Research Institute, Bldg. 53, 195, sec. 4, Chung Hsing Rd. Chutung, Hsinchu, Taiwan 310, R.O.C.
The PDGFR-beta assay was conducted following the protocol described in Protocol for HTScan® PDGFR-beta Kinase Assay Kit (Cell Signaling Technology®). The assay was conducted under the following conditions: PDGFR-beta source: The GST-Kinase fusion protein was produced using a baculovirus expression system with a construct expressing human PDGFRβ (Gln557-Leu1106) (GenBank Accession No. NM_002609) with an amino-terminal GST tag, substrate: This biotinylated peptide contains the residues surrounding Tyr-589 of FLT-3, vehicle: 1% DMSO, pre-incubation time/temperature: 5 minutes at room temperature, incubation time/temperature: 30 minutes at room temperature, incubation buffer: 60 mM HEPES pH 7.5, 5 mM MgCl2, 5 mM MnCl2, 3 μM Na3VO4, 1.25 mM DTT, 20 μM ATP, and quantitative method: DELFIA® Assay.

[3] = target: T3, human VEGFR-2 (Val789-Val1356) (Homo sapiens, UniProt P35968); experiment: KDR kinase assay (HTScan VEGFR-2 kit, DELFIA); settings: for inhibition at 0.1 µM: compound at 0.1 μM, read-out: KDR 0.1 μM, % of inhibition relative to control; for inhibition at 1 µM: compound at 1 μM, read-out: KDR 1 μM, % of inhibition relative to control
T3 construct: human VEGFR-2 (Val789-Val1356); GST (N); purchased Cell Signaling Technology; host or cells: baculovirus expression system
In short: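 GST-tagged human VEGFR-2 (Val789-Val1356) from baculovirus, with 1.5 μM biotinylated gastrin precursor peptide and 20 μM ATP in HEPES pH 7.5, Mg/Mn, vanadate, DTT, 1% DMSO. Pre-incubation 5 min, reaction 30 min at room temperature; phosphorylation read by DELFIA.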

[4] = target: T4, human FLT-3 (Arg571-Ser993) (Homo sapiens, UniProt P36888); experiment: FLT-3 kinase assay (HTScan kit, DELFIA); settings: for inhibition at 0.1 µM: compound at 0.1 μM, read-out: FLT-3 0.1 μM, % of inhibition relative to control; for inhibition at 1 µM: compound at 1 μM, read-out: FLT-3 1 μM, % of inhibition relative to control
T4 construct: human FLT-3 (Arg571-Ser993); GST (N); purchased Cell Signaling Technology; host or cells: baculovirus expression system
T4 sequence (P36888 571-993): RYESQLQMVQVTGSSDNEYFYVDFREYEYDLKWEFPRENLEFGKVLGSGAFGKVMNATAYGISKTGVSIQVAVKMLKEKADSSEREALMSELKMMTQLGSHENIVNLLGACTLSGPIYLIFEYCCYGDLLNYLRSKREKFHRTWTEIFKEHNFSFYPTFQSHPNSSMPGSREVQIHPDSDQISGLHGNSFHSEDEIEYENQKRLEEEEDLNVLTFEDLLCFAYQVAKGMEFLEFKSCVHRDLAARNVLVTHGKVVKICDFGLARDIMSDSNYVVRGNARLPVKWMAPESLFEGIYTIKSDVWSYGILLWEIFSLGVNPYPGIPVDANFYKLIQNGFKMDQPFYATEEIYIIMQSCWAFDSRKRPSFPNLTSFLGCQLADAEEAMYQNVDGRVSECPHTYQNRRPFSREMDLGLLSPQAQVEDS
In short: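 GST-tagged human FLT-3 (Arg571-Ser993, baculovirus-expressed) phosphorylated 1.5 μM biotinylated gastrin precursor peptide with 20 μM ATP in HEPES pH 7.5, Mg/Mn buffer and 1% DMSO. After 5 min preincubation, the reaction ran 30 min at room temperature. Phosphorylation was read by DELFIA.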

[5] = target: T5, human EGFR (His672-Ala1210) (Homo sapiens, UniProt P00533); experiment: EGFR kinase assay (HTScan kit, DELFIA); settings: for inhibition at 0.1 µM: compound at 0.1 μM, read-out: EGFR 0.1 μM, % of inhibition relative to control; for inhibition at 1 µM: compound at 1 μM, read-out: EGFR 1 μM, % of inhibition relative to control
T5 construct: human EGFR (His672-Ala1210); GST (N); purchased Cell Signaling Technology; host or cells: baculovirus expression system
Protocol: as §1
The EGFR assay was conducted following the protocol described in Protocol for HTScan® EGFR Kinase Assay Kit (Cell Signaling Technology®). The assay was conducted under the following conditions: EGFR source: The GST-kinase fusion protein was produced using a baculovirus expression system with a construct expressing human EGFR (His672-Ala1210) (GenBank Accession No. NM_005228) with an amino-terminal GST tag, substrate: 1.5 μM This biotinylated peptide contains the residues surrounding Tyr-66 of PTP1B, vehicle: 1% DMSO, pre-incubation time/temperature: 5 minutes at room temperature, incubation time/temperature: 30 minutes at room temperature, incubation buffer: 60 mM HEPES pH 7.5, 5 mM MgCl2, 5 mM MnCl2, 3 μM Na3VO4, 1.25 mM DTT, 20 μM ATP, and quantitative method: DELFIA® Assay.

T3 sequence (P35968 789-1356): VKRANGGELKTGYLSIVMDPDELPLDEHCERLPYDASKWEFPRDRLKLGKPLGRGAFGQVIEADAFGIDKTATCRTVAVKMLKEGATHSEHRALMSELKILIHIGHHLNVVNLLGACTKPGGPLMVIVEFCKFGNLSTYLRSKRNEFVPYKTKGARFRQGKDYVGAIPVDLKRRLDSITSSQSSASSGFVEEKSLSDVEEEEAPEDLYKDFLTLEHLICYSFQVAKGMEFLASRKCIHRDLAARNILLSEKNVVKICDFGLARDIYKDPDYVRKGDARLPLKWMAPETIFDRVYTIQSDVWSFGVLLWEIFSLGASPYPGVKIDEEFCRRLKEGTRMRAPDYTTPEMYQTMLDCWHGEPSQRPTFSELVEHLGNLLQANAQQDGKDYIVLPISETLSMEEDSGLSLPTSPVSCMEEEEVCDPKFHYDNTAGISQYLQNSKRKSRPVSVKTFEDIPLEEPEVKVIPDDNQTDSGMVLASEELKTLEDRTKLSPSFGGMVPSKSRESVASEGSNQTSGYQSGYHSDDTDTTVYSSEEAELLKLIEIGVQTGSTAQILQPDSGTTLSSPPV
T1 sequence (P10721 544-976): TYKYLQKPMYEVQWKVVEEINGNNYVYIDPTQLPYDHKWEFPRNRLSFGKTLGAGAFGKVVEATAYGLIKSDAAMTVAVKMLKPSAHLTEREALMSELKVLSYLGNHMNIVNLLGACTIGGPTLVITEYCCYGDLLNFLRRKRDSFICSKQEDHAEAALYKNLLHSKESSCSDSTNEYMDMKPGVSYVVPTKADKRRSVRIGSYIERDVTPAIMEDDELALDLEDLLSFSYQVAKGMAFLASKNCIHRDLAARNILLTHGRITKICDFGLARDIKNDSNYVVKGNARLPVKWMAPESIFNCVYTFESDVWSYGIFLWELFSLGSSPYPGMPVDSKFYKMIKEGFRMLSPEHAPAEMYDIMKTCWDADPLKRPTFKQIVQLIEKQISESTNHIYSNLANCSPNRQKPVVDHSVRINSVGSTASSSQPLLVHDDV
T5 sequence (P00533 672-1210): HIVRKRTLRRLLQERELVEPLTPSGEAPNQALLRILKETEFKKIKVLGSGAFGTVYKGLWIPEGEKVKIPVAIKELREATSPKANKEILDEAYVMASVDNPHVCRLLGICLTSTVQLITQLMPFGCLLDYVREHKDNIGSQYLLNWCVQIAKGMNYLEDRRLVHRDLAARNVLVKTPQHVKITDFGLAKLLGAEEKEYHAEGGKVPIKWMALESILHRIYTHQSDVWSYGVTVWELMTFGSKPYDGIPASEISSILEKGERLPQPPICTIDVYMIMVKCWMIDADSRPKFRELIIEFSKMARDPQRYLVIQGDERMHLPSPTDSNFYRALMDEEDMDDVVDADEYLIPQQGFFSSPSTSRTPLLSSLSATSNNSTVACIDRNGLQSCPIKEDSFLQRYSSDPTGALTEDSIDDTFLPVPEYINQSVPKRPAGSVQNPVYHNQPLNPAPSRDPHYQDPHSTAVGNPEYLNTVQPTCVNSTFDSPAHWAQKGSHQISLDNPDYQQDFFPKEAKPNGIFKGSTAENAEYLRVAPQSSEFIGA
T2 sequence (P09619 557-1106): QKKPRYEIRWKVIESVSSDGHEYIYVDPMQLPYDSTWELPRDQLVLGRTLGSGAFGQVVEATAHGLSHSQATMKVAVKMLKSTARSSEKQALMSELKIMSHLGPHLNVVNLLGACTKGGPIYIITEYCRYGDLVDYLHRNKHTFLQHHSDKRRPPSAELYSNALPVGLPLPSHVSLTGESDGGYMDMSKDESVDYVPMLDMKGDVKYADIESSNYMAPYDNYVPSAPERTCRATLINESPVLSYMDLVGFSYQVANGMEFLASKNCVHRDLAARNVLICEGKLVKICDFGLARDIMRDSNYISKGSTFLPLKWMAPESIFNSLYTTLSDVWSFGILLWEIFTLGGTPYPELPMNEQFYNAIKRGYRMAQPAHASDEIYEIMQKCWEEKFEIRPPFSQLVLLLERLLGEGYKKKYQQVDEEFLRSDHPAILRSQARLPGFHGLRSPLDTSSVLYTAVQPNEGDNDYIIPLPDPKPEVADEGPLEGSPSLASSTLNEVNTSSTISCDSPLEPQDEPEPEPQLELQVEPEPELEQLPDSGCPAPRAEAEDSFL

Row | SMILES | inhibition at 0.1 µM [1] | inhibition at 1 µM [1] | PDGFR-β 10 μM, % of inhibition relative to control [2] | inhibition at 0.1 µM [3] | inhibition at 1 µM [3] | inhibition at 0.1 µM [4] | inhibition at 1 µM [4] | inhibition at 0.1 µM [5] | inhibition at 1 µM [5] | IC50 ([1]; read-out: c-KIT kinase inhibition (IC50)) | IC50 ([4]; read-out: FLT-3 kinase inhibition (IC50)) | IC50 ([3]; read-out: KDR kinase inhibition (IC50))
1 | O=C1Nc2ccc(Br)cc2/C1=C/c1ccc2cccccc1-2 [Compound 6, 3-Azulen-1-ylmethylene-5-bromo-1,3-dihydro-indol-2-one] | 36.6% | 36.6% | 35.5% | 19.6% | 29.7% |  |  |  |  |  |  | 
2 | COC(=O)c1cc(/C=C2\C(=O)Nc3ccccc32)c2cccccc1-2 [Compound 16, 3-(2-Oxo-1,2-dihydro-indol-3-ylidenemethyl)-azulene-1-carboxylic acid methyl ester] | 2.8% | 2.8% | 3.6% | 15.4% | 20.1% | 7.7% |  |  |  |  |  | 
3 | Cc1cc(/C=C2/C(=O)Nc3ccccc32)c2c(C)ccc(C(C)C)cc1-2 [Compound 12, 3-(5-Isopropyl-3,8-dimethyl-azulen-1-ylmethylene)-1,3-dihydro-indol-2-one] | 14.7% | 14.7% | 7.3% | 17.3% | 34.3% |  |  |  |  |  |  | 
4 | Cc1cc(C)c2ccc(/C=C3/C(=O)N(Cc4ccccc4)c4ccccc43)c-2c(C)c1 [Compound 10, 1-Benzyl-3-(4,6,8-trimethyl-azulen-1-ylmethylene)-1,3-dihydro-indol-2-one] | 8.4% | 8.4% | 18.6% | 22.1% | 38.5% |  |  |  |  |  |  | 
5 | O=C1Nc2ccccc2/C1=C\c1c2cccccc-2[nH]c1=O [Compound 27, 3-(2-Oxo-1,2-dihydro-indol-3-ylidenemethyl)-1H-cyclohepta[b]pyrrol-2-one] | 25.7% | 25.7% | 5.3% | 25.9% | 39.5% | 8.6% | 30.9% |  |  |  |  | 
6 | O=C1C(=Cc2ccc3cccccc2-3)c2ccccc2N1Cc1ccccc1 [Compound 2, 3-Azulen-1-ylmethylene-1-benzyl-1,3-dihydro-indol-2-one] | 24.7% | 24.7% | 3.6% |  | 10.3% |  |  |  |  |  |  | 
7 | Cc1cc(C)c2ccc(/C=C3/C(=O)Nc4ccccc43)c-2c(C)c1 [Compound 9, 3-(4,6,8-Trimethyl-azulen-1-ylmethylene)-1,3-dihydro-indol-2-one] | 11.5% | 11.5% | 14.7% | 12.3% | 33.4% |  | 3.8% |  |  |  |  | 
8 | O=C1Nc2ccc(Cl)cc2/C1=C\c1ccc2cccccc1-2 [Compound 22, 3-Azulen-1-ylmethylene-5-chloro-1,3-dihydro-indol-2-one] | 16.6% | 16.6% | 5.3% | 15.6% | 40.6% | 28.8% | 30.3% |  |  |  |  | 
9 | O=C1Nc2ccc([N+](=O)[O-])cc2/C1=C/c1ccc2cccccc1-2 [Compound 8, 3-Azulen-1-ylmethylene-5-nitro-1,3-dihydro-indol-2-one] | 36.4% | 36.4% | 16.2% | 26.4% | 55.9% |  | 11.5% |  |  |  |  | 
10 | O=C1Nc2ccc(F)cc2/C1=C/c1ccc2cccccc1-2 [Compound 26, 3-Azulen-1-ylmethylene-5-fluoro-1,3-dihydro-indol-2-one] | 60.4% | 60.4% | 7.9% | 33.9% | 59.1% | 5% | 34.7% |  |  |  |  | 
11 | O=C1Nc2ccc(F)cc2/C1=C\c1cc2cccccc-2c1 [Compound 40, 3-Azulen-2-ylmethylene-5-fluoro-1,3-dihydro-indol-2-one] | 80% | 80% |  | 13.8% | 22.2% | 84.3% | 95.5% | 10% | 17.3% |  |  | 
12 | O=C1/C(=C/c2ccc3cccccc2-3)c2ccccc2N1C(c1ccccc1)c1ccccc1 [Compound 3, 3-Azulen-1-ylmethylene-1-benzhydryl-1,3-dihydro-indol-2-one] |  |  | 14.4% |  |  |  | 5.1% |  |  |  |  | 
13 | O=C1Nc2ccc(Br)cc2/C1=C\c1ccc2cccccc1-2 [Compound 7, 3-Azulen-1-ylmethylene-5-bromo-1,3-dihydro-indol-2-one] | 30.9% | 30.9% | 4.7% | 29.5% | 28.8% | 17.8% | 40.1% |  |  |  |  | 
14 | O=C1Nc2ccc(F)cc2/C1=C\c1cc(Br)c2cccccc1-2 [Compound 51, 3-(3-Bromo-azulen-1-ylmethylene)-5-fluoro-1,3-dihydro-indol-2-one] | 73.9% | 73.9% |  |  | 26.4% | 38.4% | 82.6% |  | 11.5% |  |  | 
15 | Cc1cc(/C=C2\C(=O)Nc3ccc(F)cc32)c2cccccc1-2 [Compound 39, 5-Fluoro-3-(3-methyl-azulen-1-ylmethylene)-1,3-dihydro-indol-2-one] | 80.1% | 80.1% |  |  | 20.2% | 45.6% | 93.2% | 6.1% | 14.1% | 128 nM | 491 nM | 6.38 µM
